For 21 compounds, IC50 results are on record in patent US9334264B2, “NAMPT inhibitors” (AbbVie Inc., priority 2012, dated 2016).

The target of assay [1] is NAMPT (human, recombinant, C-terminally His-tagged) (Homo sapiens, UniProt P43490). In words: Time-Resolved Fluorescence Resonance Energy Transfer (TR-FRET) Binding Assay of NAMPT. The settings on record: absence of substrates; 6.8 nM NAMPT, 200 nM probe, equilibrated 3 hours. The method, boiled down: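 Displacement of 200 nM Oregon Green-labelled nicotinamide-competitive probe from 6.8 nM His-tagged NAMPT, detected with 1 nM Tb-anti-His; HEPES pH 7.5, 2% DMSO, 3 h room temperature. Em520/Em495 ratios normalized and fit four-parameter logistic for IC50.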

Another assay concerns the target NAMPT (Homo sapiens, UniProt P43490). The assay is described as follows: Time-Resolved Fluorescence Resonance Energy Transfer (TR-FRET) Binding Assay of NAMPT with PRPP. To be noted: 200 μM PRPP and 2.5 mM ATP; 2 nM NAMPT, 2 nM probe, equilibrated 16 hours. The method, boiled down:
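Binding was measured by TR-FRET with 2 nM NAMPT, 2 nM probe and 1 nM Tb-anti-His antibody in the presence of 200 μM PRPP and 2.5 mM ATP, with 2% DMSO. Equilibration lasted 16 h before reading, allowing possible enzymatic modification of compounds.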

Sequence of NAMPT (human, recombinant, C-terminally His-tagged) (P43490 whole entry): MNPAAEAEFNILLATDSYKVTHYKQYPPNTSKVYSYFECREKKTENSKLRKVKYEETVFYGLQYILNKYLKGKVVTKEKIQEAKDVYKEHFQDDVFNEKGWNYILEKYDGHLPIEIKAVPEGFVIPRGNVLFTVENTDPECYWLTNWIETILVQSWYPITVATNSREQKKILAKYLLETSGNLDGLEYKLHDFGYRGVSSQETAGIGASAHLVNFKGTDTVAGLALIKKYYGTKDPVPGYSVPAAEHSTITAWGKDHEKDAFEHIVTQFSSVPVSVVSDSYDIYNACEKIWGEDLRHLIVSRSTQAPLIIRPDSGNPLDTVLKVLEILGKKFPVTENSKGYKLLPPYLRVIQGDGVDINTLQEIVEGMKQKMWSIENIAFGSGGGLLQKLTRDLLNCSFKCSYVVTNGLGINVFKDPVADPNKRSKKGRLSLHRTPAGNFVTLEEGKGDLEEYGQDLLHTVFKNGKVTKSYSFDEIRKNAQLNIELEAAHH
Sequence of NAMPT (P43490 whole entry): as above

In the case of `COCCC(=O)N(Cc1cccnc1)c1ncc(C(=O)NCCCn2ccnc2)s1` [Example 122, N-[3-(1H-imidazol-1-yl)propyl]-2-[(3-methoxypropanoyl)(pyridin-3-ylmethyl)amino]-1,3-thiazole-5-carboxamide], the IC50 in assay [1] is greater than 10 µM; at NAMPT it was 0.00431 µM.

Turning to `NC(=O)C1CCCN(C(=O)N(Cc2ccc(F)cc2)c2ncc(C(=O)NCCCn3ccnc3)s2)C1` (stereo not drawn) [Example 65, N^1-(4-fluorobenzyl)-N^1-(5-{[3-(1H-imidazol-1-yl)propyl]carbamoyl}-1,3-thiazol-2-yl)piperidine-1,3-dicarboxamide], the IC50 in assay [1] was greater than 10 µM; on NAMPT it was 0.00537 µM.

As for `CC(C)CCN(Cc1ccc(Cl)cc1)c1ncc(C(=O)NCCCn2ccnc2)s1` [Example 59, 2-[(4-chlorobenzyl)(3-methylbutyl)amino]-N-[3-(1H-imidazol-1-yl)propyl]-1,3-thiazole-5-carboxamide], the IC50 was greater than 10 µM in assay [1] and 0.266 µM on NAMPT.

Regarding `COCCC(=O)N(Cc1scnc1C)c1ncc(C(=O)NCCCn2ccnc2)s1` [Example 99, N-[3-(1H-imidazol-1-yl)propyl]-2-{(3-methoxypropanoyl)[(4-methyl-1,3-thiazol-5-yl)methyl]amino}-1,3-thiazole-5-carboxamide], the IC50 was found to be 3.56 µM in assay [1] and 0.0015 µM at NAMPT.

For the compound `COCC(C)NC(=O)N(Cc1ccc(F)cc1)c1ncc(C(=O)NCCCn2ccnc2)s1` (stereo not drawn) [Example 80, 2-{(4-fluorobenzyl)[(1-methoxypropan-2-yl)carbamoyl]amino}-N-[3-(1H-imidazol-1-yl)propyl]-1,3-thiazole-5-carboxamide], the results for the IC50 (in assay [1]; on NAMPT) were 8.02 µM and 0.00137 µM, respectively.

For the compound `COCCCNC(=O)N(Cc1ccc(C#N)cc1)c1ncc(C(=O)NCCCn2ccnc2)s1` [Example 166, 2-{(4-cyanobenzyl)[(3-methoxypropyl)carbamoyl]amino}-N-[3-(1H-imidazol-1-yl)propyl]-1,3-thiazole-5-carboxamide], the IC50 was greater than 10 µM in assay [1] and 0.63 µM on NAMPT.

`N#Cc1ccc(CN(C(=O)NCCC(N)=O)c2ncc(C(=O)NCCCn3ccnc3)s2)cc1` [Example 140, 2-{[(3-amino-3-oxopropyl)carbamoyl](4-cyanobenzyl)amino}-N-[3-(1H-imidazol-1-yl)propyl]-1,3-thiazole-5-carboxamide]: the results for the IC50 (in assay [1]; on NAMPT) were greater than 10 µM and 0.0223 µM, respectively.

As for `Cc1cn(CCCNC(=O)c2cnc(N(Cc3ccc(F)cc3)C(=O)CC(C)C)s2)cn1` [Example 54, 2-[(4-fluorobenzyl)(3-methylbutanoyl)amino]-N-[3-(4-methyl-1H-imidazol-1-yl)propyl]-1,3-thiazole-5-carboxamide], the IC50 in assay [1] was 2.11 µM; at NAMPT it was 0.0056 µM.

Take `CC(C)CCN(C(=O)CC1CCOC1)c1ncc(C(=O)NCCCn2ccnc2)s1` (stereo not drawn) [Example 174, N-[3-(1H-imidazol-1-yl)propyl]-2-[(3-methylbutyl)(tetrahydrofuran-3-ylacetyl)amino]-1,3-thiazole-5-carboxamide]: the IC50 in assay [1] stood at 0.334 µM; on NAMPT it was 0.000714 µM.

For `COCCC(=O)N(CCc1ccc(Cl)cc1)c1ncc(C(=O)NCCCn2ccnc2)s1` [Example 103, 2-{[2-(4-chlorophenyl)ethyl](3-methoxypropanoyl)amino}-N-[3-(1H-imidazol-1-yl)propyl]-1,3-thiazole-5-carboxamide acetate (1:1)], the values for the IC50 (in assay [1]; at NAMPT) were 0.709 µM and 0.00306 µM, respectively.

`COCCN(C(=O)Cc1cccnc1)c1ncc(C(=O)NCCCn2ccnc2)s1` [Example 184, N-[3-(1H-imidazol-1-yl)propyl]-2-[(2-methoxyethyl)(pyridin-3-ylacetyl)amino]-1,3-thiazole-5-carboxamide]: the IC50 in assay [1] amounted to 0.763 µM; on NAMPT it was 0.000285 µM.

As to `COCCC(=O)N(CCOC(C)C)c1ncc(C(=O)NCCCn2ccnc2)s1` [Example 179, N-[3-(1H-imidazol-1-yl)propyl]-2-{(3-methoxypropanoyl)[2-(propan-2-yloxy)ethyl]amino}-1,3-thiazole-5-carboxamide], the values for the IC50 (in assay [1]; at NAMPT) were 9.8 µM and 0.000492 µM, respectively.

Consider `CC(=O)O[C@@H](C)C(=O)N(CCC(C)C)c1ncc(C(=O)NCCCn2ccnc2)s1` [Example 153, (2S)-1-[(5-{[3-(1H-imidazol-1-yl)propyl]carbamoyl}-1,3-thiazol-2-yl)(3-methylbutyl)amino]-1-oxopropan-2-yl acetate], for which the IC50 turned out to be 1.43 µM in assay [1] and 0.000286 µM at NAMPT.

Turning to `COCCC(=O)N(CCOC)c1ncc(C(=O)NCCCn2ccnc2)s1` [Example 175, N-[3-(1H-imidazol-1-yl)propyl]-2-[(2-methoxyethyl)(3-methoxypropanoyl)amino]-1,3-thiazole-5-carboxamide], the IC50 in assay [1] amounted to 1.15 µM; on NAMPT, 0.0006 µM.

Regarding `CCN(CC)CCN(C(=O)CCOC)c1ncc(C(=O)NCCCn2ccnc2)s1` [Example 191, 2-{[2-(diethylamino)ethyl](3-methoxypropanoyl)amino}-N-[3-(1H-imidazol-1-yl)propyl]-1,3-thiazole-5-carboxamide], the concentration for half-maximal inhibition (IC50) in assay [1] is greater than 10 µM; on NAMPT, 0.000265 µM.

Consider `O=C(NCCCn1ccnc1)c1cnc(N2CCN(CCO)C2=O)s1` [Example 203, 2-[3-(2-hydroxyethyl)-2-oxoimidazolidin-1-yl]-N-[3-(1H-imidazol-1-yl)propyl]-1,3-thiazole-5-carboxamide], for which the half-inhibitory concentration (IC50) is greater than 10 µM in assay [1] and 0.0136 µM on NAMPT.

In the case of `O=C(NCCCn1ccnc1)c1cnc(N(Cc2ccc(Cl)cn2)C(=O)C2CCOC2)s1` (stereo not drawn) [Example 206, 2-{[(5-chloropyridin-2-yl)methyl](tetrahydrofuran-3-ylcarbonyl)amino}-N-[3-(1H-imidazol-1-yl)propyl]-1,3-thiazole-5-carboxamide], the IC50 amounted to 5.63 µM in assay [1] and 0.000633 µM at NAMPT.

Turning to `CC1CCN(CC(=O)N(Cc2ccc(F)cc2)c2ncc(C(=O)NCCCn3ccnc3)s2)CC1` [Example 28, 2-{(4-fluorobenzyl)[(4-methylpiperidin-1-yl)acetyl]amino}-N-[3-(1H-imidazol-1-yl)propyl]-1,3-thiazole-5-carboxamide], the IC50 stood at 7.02 µM in assay [1] and 0.000833 µM on NAMPT.

`C=C[C@H](CO)NC(=O)N(Cc1ccc(C#N)cc1)c1ncc(C(=O)NCCCn2ccnc2)s1` [Example 148, 2-[(4-cyanobenzyl){[(2R)-1-hydroxybut-3-en-2-yl]carbamoyl}amino]-N-[3-(1H-imidazol-1-yl)propyl]-1,3-thiazole-5-carboxamide]: the IC50 in assay [1] is greater than 10 µM; at NAMPT it was 0.0606 µM.

For the compound `CC(C)CCN(C(=O)[C@@H](C)Oc1ccccc1)c1ncc(C(=O)NCCCn2ccnc2)s1` [Example 133, N-[3-(1H-imidazol-1-yl)propyl]-2-{(3-methylbutyl)[(2R)-2-phenoxypropanoyl]amino}-1,3-thiazole-5-carboxamide], the values for the IC50 (in assay [1]; at NAMPT) were 0.0589 µM and 0.000527 µM, respectively.

As for `COCCC(=O)N(CCNC(=O)C(C)C)c1ncc(C(=O)NCCCn2ccnc2)s1` [Example 199, N-[3-(1H-imidazol-1-yl)propyl]-2-[(3-methoxypropanoyl){2-[(2-methylpropanoyl)amino]ethyl}amino]-1,3-thiazole-5-carboxamide], the IC50 is greater than 10 µM in assay [1] and 0.000493 µM at NAMPT.
